Measurements from US20230051589A1, “COMPOUNDS AND COMPOSITIONS FOR TREATING CONDITIONS ASSOCIATED WITH NLRP ACTIVITY” (Novartis AG, priority 2018, published 2023).

test system: IL-1β production in PMA-differentiated THP-1 cells; test: IL-1β production in PMA-differentiated THP-1 cells stimulated with gramicidin (hTHP-1 assay, 2% fetal bovine serum; Procedures 1-3); format: cell-based, human; settings: Homo sapiens, THP-1, Table B3; hTHP-1 assay containing 2% fetal bovine serum, gramicidin stimulation, IL-1β readout; read-out: hTHP-1 IC50
How it was run: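 PMA-primed THP-1 cells (20 ng/ml PMA, 16-18 h) in RPMI with 2% FBS were pre-incubated with compounds for 1 h, from 100 μM downward in 3-fold steps (0.37% DMSO final), then stimulated with 5 μM gramicidin for 2 h. IL-1β in the supernatant was quantified by HTRF.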

First: C[C@@](O)(CO)c1ncc(S(N)(=O)=NC(=O)Nc2c3c(cc4c2C(=O)CC4)CCC3)s1 (stereo partly drawn) [Example 743, 2-((R)-1,2-dihydroxypropan-2-yl)-N′-((3-oxo-1,2,3,5,6,7-hexahydro-s-indacen-4-yl)carbamoyl)thiazole-5-sulfonimidamide]
Second: C[C@](O)(CO)c1ncc(S(N)(=O)=NC(=O)Nc2c3c(cc4c2C(=O)CC4)CCC3)s1 (stereo partly drawn) [Example 744, 2-((S)-1,2-dihydroxypropan-2-yl)-N′-((3-oxo-1,2,3,5,6,7-hexahydro-s-indacen-4-yl)carbamoyl)thiazole-5-sulfonimidamide]
The IC50 of the first is higher: 200 to 1000 nM for the first, 40 to 200 nM for the second.

First: C[C@](O)(COCCO)c1ccc([S@@](N)(=O)=NC(=O)Nc2c3c(cc4c2CCC4)CCC3)s1 [Example 748, (S)-N′-((1,2,3,5,6,7-hexahydro-s-indacen-4-yl)carbamoyl)-5-((S)-2-hydroxy-1-(2-hydroxyethoxy)propan-2-yl)thiophene-2-sulfonimidamide]
Second: C[C@](O)(COCCO)c1ccc([S@](N)(=O)=NC(=O)Nc2c3c(cc4c2CCC4)CCC3)s1 [Example 749, (R)-N′-((1,2,3,5,6,7-hexahydro-s-indacen-4-yl)carbamoyl)-5-((S)-2-hydroxy-1-(2-hydroxyethoxy)propan-2-yl)thiophene-2-sulfonimidamide]
The IC50 of the first is lower: 40 to 200 nM for the first, 200 to 1000 nM for the second.

First: C[C@](O)(COCCOCCOCCOCCO)c1ncc(S(N)(=O)=NC(=O)Nc2c3c(cc4c2CCC4)CCC3)s1 (stereo partly drawn) [Example 750, 2-((S)-1,14-dihydroxy-3,6,9,12-tetraoxapentadecan-14-yl)-N′-((1,2,3,5,6,7-hexahydro-s-indacen-4-yl)carbamoyl)thiazole-5-sulfonimidamide]
Second: C[C@](O)(COCCOCCOCCOCCOCc1ccccc1)c1ncc(S(N)(=O)=NC(=O)Nc2c3c(cc4c2CCC4)CCC3)s1 (stereo partly drawn) [Example 761, N-((1,2,3,5,6,7-hexahvdro-s-indacen-4-yl)carbamoyl)-2-((S)-16-hydroxy-1-phenyl-2,5,8,11,14-pentaoxaheptadecan-16-yl)thiazole-5-sulfonimidamide]
The IC50 of the first is higher: 5000 to 30000 nM for the first, 200 to 1000 nM for the second.

First: NS(=O)(=NC(=O)Nc1c2c(cc3c1CCC3)CCC2)c1cnc(C(O)(COCCO)COCCO)s1 (stereo not drawn) [Example 751, N′-((1,2,3,5,6,7-hexahydro-s-indacen-4-yl)carbamoyl)-2-(2-hydroxy-1,3-bis(2-hydroxyethoxy)propan-2-yl)thiazole-5-sulfonimidamide]
Second: CC(CO)(CO)c1ncc(S(N)(=O)=NC(=O)Nc2c3c(cc4c2CCC4)CCC3)s1 (stereo not drawn) [Example 756, 2-(1,3-Dihydroxy-2-methylpropan-2-yl)-N′-((1,2,3,5,6,7-hexahydro-s-indacen-4-yl)carbamoyl)thiazole-5-sulfonimidamide]
The IC50 of the first is higher: 1000 to 5000 nM for the first, 40 to 200 nM for the second. The second is the more potent here.

First: CN(C)C1CCc2cc(S(N)(=O)=NC(=O)Nc3c4c(cc5c3CCC5)CCC4)sc2C1 (stereo not drawn) [Example 752, 6-(Dimethylamino)-N′-((1,2,3,5,6,7-hexahydro-s-indacen-4-yl)carbamoyl)-4,5,6,7-tetrahydrobenzo[b]thiophene-2-sulfonimidamide]
Second: CNC1CCc2cc(S(N)(=O)=NC(=O)Nc3c4c(cc5c3CCC5)CCC4)sc2C1 (stereo not drawn) [Example 778, N′-((1,2,3,5,6,7-hexahydro-s-indacen-4-yl)carbamoyl)-6-(methylamino)-4,5,6,7-tetrahydrobenzo[b]thiophene-2-sulfonimidamide]
The IC50 of the first is higher: 1000 to 5000 nM for the first, 200 to 1000 nM for the second.

CC(O)(CO)c1nc(CO)c(S(N)(=O)=NC(=O)Nc2c3c(cc4c2CCC4)CCC3)s1 (stereo not drawn) [Example 753, 2-(1,2-Dihydroxypropan-2-yl)-N′-((1,2,3,5,6,7-hexahydro-s-indacen-4-yl)carbamoyl)-4-(hydroxymethyl)thiazole-5-sulfonimidamide] and CC(O)(CO)c1nc(CO)c(S(N)(=O)=NC(=O)Nc2c3c(cc4c2CC4)CCC3)s1 (stereo not drawn) [Example 757, 2-(1,2-Dihydroxypropan-2-yl)-4-(hydroxymethyl)-N′-((2,4,5,6-tetrahydro-1H-cyclobuta[f]inden-3-yl)carbamoyl)thiazole-5-sulfonimidamide] fall in the same range of IC50: 40 to 200 nM for the first, 40 to 200 nM for the second.

NS(=O)(=NC(=O)Nc1c2c(cc3c1CCC3)CCC2)c1cc2c(s1)CCOC2 (stereo not drawn) [Example 758, N′-((1,2,3,5,6,7-hexahydro-s-indacen-4-yl)carbamoyl)-6,7-dihydro-4H-thieno[3,2-c]pyran-2-sulfonimidamide] and NS(=O)(=NC(=O)Nc1c2c(cc3c1CC3)CCC2)c1sc2c(c1F)COCC2 (stereo not drawn) [Example 770, 3-Fluoro-N′-((2,4,5,6-tetrahydro-1H-cyclobuta[f]inden-3-yl)caibamoyl)-6,7-dihydro-4H-thieno[3,2-c]pyran-2-sulfonimidamide] fall in the same range of IC50: 200 to 1000 nM for the first, 200 to 1000 nM for the second.

First: NS(=O)(=NC(=O)Nc1c2c(cc3c1CCC3)CCC2)c1ccc(-c2ccccc2)s1 (stereo not drawn) [Example 759, N′-((1,2,3,5,6,7-hexahydro-s-indacen-4-yl)carbamoyl)-5-phenylthiophene-2-sulfonimidamide]
Second: CC(C)(O)c1sc(S(N)(=O)=NC(=O)Nc2c3c(cc4c2CCC4)CCC3)cc1-c1ccccc1 (stereo not drawn) [Example 760, N′-((1,2,3,5,6,7-hexahydro-s-indacen-4-yl)carbamoyl)-5-(2-hydroxypropan-2-yl)-4-phenylthiophene-2-sulfonimidamide]
The IC50 of the first is higher: 5000 to 30000 nM for the first, 200 to 1000 nM for the second. The second is the more potent here.

Compared with CC(C)(O)c1cccc(S(N)(=O)=NC(=O)Nc2c3c(cc4c2CCC4)CCC3)n1 (stereo not drawn) [Example 763, N′-((1,2,3,5,6,7-hexahydro-s-indacen-4-yl)carbamoyl)-6-(2-hydroxypropan-2-yl)pyridine-2-sulfonimidamide], CC(C)(O)c1sc(S(N)(=O)=NC(=O)Nc2c3c(cc4c2CCC4)CCC3)nc1CO (stereo not drawn) [Example 767, N′-((1,2,3,5,6,7-hexahydro-s-indacen-4-yl)carbamoyl)-4-(hydroxymethyl)-5-(2-hydroxypropan-2-yl)thiazole-2-sulfonimidamide] is lower in IC50: 1000 to 5000 nM for the first, 40 to 200 nM for the second.

CN(C)CC(C)(C)c1ccc(S(N)(=O)=NC(=O)Nc2c3c(cc4c2CCC4)CCC3)cc1 (stereo not drawn) [Example 764, 4-(1-(Dimethylamino)-2-methylpropan-2-yl)-N′-((1,2,3,5,6,7-hexahydro-s-indacen-4-yl)carbamoyl)benzenesulfonimidamide] and CC(C)c1cnc(S(N)(=O)=NC(=O)Nc2c3c(cc4c2CCC4)CCC3)c(F)c1 (stereo not drawn) [Example 765, 3-Fluoro-N'-((1,2,3,5,6,7-hexahydro-s-indacen-4-yl)carbamoyl)-5-isopropylpyridine-2-sulfonimidamide] fall in the same range of IC50: 1000 to 5000 nM for the first, 1000 to 5000 nM for the second.

First: CC1c2c(csc2S(N)(=O)=NC(=O)Nc2c3c(cc4c2CCC4)CCC3)CN1C (stereo not drawn) [Example 768, N′-((1,2,3,5,6,7-hexahydro-s-indacen-4-yl)carbamoyl)-5,6-dimethyl-5,6-dihydro-4H-thieno[3,4-c]pyrrole-1-sulfonimidamide]
Second: COC1CCc2c(csc2S(N)(=O)=NC(=O)Nc2c3c(cc4c2CCC4)CCC3)C1 (stereo not drawn) [Example 774, N′-((1,2,3,5,6,7-hexahydro-s-indacen-4-yl)carbamoyl)-5-methoxy-4,5,6,7-tetrahydrobenzo[c]thiophene-1-sulfonimidamide]
The IC50 of the first is lower: 200 to 1000 nM for the first, 1000 to 5000 nM for the second.

First: CN1CCc2sc(S(N)(=O)=NC(=O)Nc3c4c(cc5c3CC5)CCC4)c(F)c2C1 (stereo not drawn) [Example 769, 3-Fluoro-5-methyl-N′-((2,4,5,6-tetrahydro-1H-cyclobuta[f]inden-3-yl)carbamoyl)-4,5,6,7-tetrahydrothieno[3,2-c]pyridine-2-sulfonimidamide]
Second: NS(=O)(=NC(=O)Nc1c2c(cc3c1CC3)CCC2)c1cc2c(s1)CCN(CC(F)F)C2 (stereo not drawn) [Example 773, 5-(2,2-Difluoroethyl)-N′-((2,4,5,6-tetrahydro-1H-cyclobuta[f]inden-3-yl)carbamoyl)-4,5,6,7-tetrahydrothieno[3,2-c]pyridine-2-sulfonimidamide]
The IC50 of the first is lower: 40 to 200 nM for the first, 1000 to 5000 nM for the second.

First: CC(C)(CO)c1ncc(S(N)(=O)=NC(=O)Nc2c3c(c(C#N)c4c2CCC4)CCC3)s1 (stereo not drawn) [Example 772, N′-((8-cyano-1,2,3,5,6,7-hexahydro-s-indacen-4-yl)carbamoyl)-2-(1-hydroxy-2-methylpropan-2-yl)thiazole-5-sulfonimidamide]
Second: COC1CCc2csc(S(N)(=O)=NC(=O)Nc3c4c(cc5c3CCC5)CCC4)c2C1 (stereo not drawn) [Example 775, N′-((1,2,3,5,6,7-hexahydro-s-indacen-4-yl)carbamoyl)-6-methoxy-4,5,6,7-tetrahydrobenzo[c]thiophene-1-sulfonimidamide]
The IC50 of the first is lower: 40 to 200 nM for the first, 1000 to 5000 nM for the second.

With CNCc1csc(S(N)(=O)=NC(=O)Nc2c3c(cc4c2CC4)CCC3)c1F (stereo not drawn) [Example 777, 3-Fluoro-4-((methylamino)methyl)-N′-((2,4,5,6-tetrahydro-1H-cyclobuta[f]inden-3-yl)carbamoyl)thiophene-2-sulfonimidamide] the IC50 was 40 to 200 nM.

same assay, conditions: Table B3; hTHP-1 assay containing 2% fetal bovine serum, gramicidin stimulation, IL-1β readout; read-out: hTHP-1 IC50

First: CC1=CC(C)=[N+]2C1=Cc1ccc(CCC(=O)N(C)Cc3ccc([S@@](=N)(=O)NC(=O)Nc4c5c(cc6c4CCC6)CCC5)cc3)n1[B-]2(F)F [Example 745, (S)-3-(5,5-difluoro-7,9-dimethyl-5H-5λ4,6λ4-dipyrrolo[1,2-c:2′,1′-f][1,3,2]diazaborinin-3-yl)-N-(4-(N′-((1,2,3,5,6,7-hexahydro-s-indacen-4-yl)carbamoyl)sulfamidimidoyl)benzyl)-N-methylpropanamide]
Second: C[C@@](O)(CO)c1nc(CO)c(S(N)(=O)=NC(=O)Nc2c3c(cc4c2CCC4)CCC3)s1 (stereo partly drawn) [Example 754, 2-((R)-1,2-dihydroxypropan-2-yl)-N′-((1,2,3,5,6,7-hexahydro-s-indacen-4-yl)carbamoyl)-4-(hydroxymethyl)thiazole-5-sulfommidamide]
The IC50 of the first is higher: 1000 to 5000 nM for the first, 40 to 200 nM for the second.

CN1CCCC(c2ccc(S(N)(=O)=NC(=O)Nc3c4c(cc5c3CC5)CCC4)c(F)c2)C1 (stereo not drawn) [Example 766, 2-Fluoro-4-(1-methylpiperidin-3-yl)-N′-((2,4,5,6-tetrahydro-1H-cyclobuta[f]inden-3-yl)carbamoyl)benzenesulfonimidamide] gave an IC50 of 1000 to 5000 nM.
